Laboratory results: publication PMC6476926, “Dichloro-Phenyl-Benzotriazoles: A New Selective Class of Human Respiratory Syncytial Virus Entry Inhibitors” (Frontiers in Chemistry, 2019)

How the values were obtained:
HIV-1IIIB = test: microbe, parasite or virus in culture; format: cell-based, Human Immunodeficiency Virus type-1 (HIV-1); settings: Human immunodeficiency virus 1, MT4, read-out: EC50 HIV-1IIIB
[1] = Cytotoxicity, MTT method, MT-4 cells; settings: human
[2] = Cytotoxicity, MTT method, Vero-76 cells; settings: African green monkey (Cercopithecus aethiops)
Sb-1, VSV, VV, HSV-1 = test: organism not typed; format: cell-based; settings: Vero 76, read-out: EC50 Sb-1, VSV, VV, HSV-1
YFV = test: microbe, parasite or virus in culture; format: cell-based; settings: Yellow fever virus, BHK, read-out: EC50 YFV
BVDV = test: microbe, parasite or virus in culture; format: cell-based; settings: Bovine viral diarrhea virus isolates and strains, MDBK, read-out: EC50 BVDV
Reo-1 = test: microbe, parasite or virus in culture; format: cell-based, Reovirus type-1 (Reo-1); settings: Reovirus sp., BHK, read-out: EC50 Reo-1
in vitro = settings: cattle (Bos taurus)
RSV = test: microbe, parasite or virus in culture; format: cell-based, Human Respiratory Syncytial Virus (RSV) strain A2; settings: human respiratory syncytial virus, Vero 76, read-out: EC50 RSV
[3] = Cytotoxicity, MTT method, BHK cells; settings: Syrian hamster (Mesocricetus auratus)
CV-B5 = test: microbe, parasite or virus in culture; format: cell-based, Human Enterovirus B [coxsackie type B5 (CV-B5)]; settings: Enterovirus B, CVB5, Vero 76, read-out: EC50 CV-B5

COc1ccc(C(=O)Nc2ccc(-n3nc4cc(Cl)c(Cl)cc4n3)cc2)cc1 [8c, N-[4-(5,6-dichloro-2H-benzo[d][1,2,3]triazol-2-yl)phenyl]-4-methoxybenzamide]
EC50 (HIV-1IIIB): > 100 µM
CC50 ([1]; MT-4 cells (mock-infected)): > 100 µM
CC50 at 5 days [2]: > 100 µM
EC50 (Sb-1, VSV, VV, HSV-1): > 100 µM
melting point: 274 to 276 °C
EC50 (YFV): > 100 µM
EC50 (BVDV): > 100 µM
EC50 (Reo-1): > 100 µM
CC50 (in vitro): > 100 µM
EC50 (RSV): > 100 µM
CC50 ([3]; BHK cells (BHK-21, mock-infected)): > 100 µM
EC50 (CV-B5): 14 µM

CCCC(=O)Nc1ccc(-n2nc3cc(Cl)c(Cl)cc3n2)cc1 [6c, N-[4-(5,6-dichloro-2H-benzo[d][1,2,3]triazol-2-yl)phenyl]butanamide]
EC50 (HIV-1IIIB): > 100 µM
CC50 [1]: > 100 µM
CC50 at 5 days [2]: > 100 µM
EC50 (Sb-1, VSV, VV, HSV-1): > 100 µM
melting point: 243 to 245 °C
EC50 (YFV): > 100 µM
EC50 (BVDV): > 100 µM
EC50 (Reo-1): > 100 µM
CC50 (in vitro): > 100 µM
EC50 (RSV): > 100 µM
CC50 [3]: > 100 µM
EC50 (CV-B5): > 100 µM

N#Cc1ccc(C(=O)Nc2ccc(-n3nnc4cc(Cl)c(Cl)cc43)cc2)cc1 [7h, N-[4-(5,6-dichloro-1H-benzo[d][1,2,3]triazol-1-yl)phenyl] 4-cyanobenzamide]
EC50 (HIV-1IIIB): > 100 µM
CC50 [1]: > 100 µM
CC50 at 5 days [2]: > 100 µM
EC50 (Sb-1, VSV, VV, HSV-1): > 100 µM
melting point: 227 to 229 °C
EC50 (YFV): > 100 µM
EC50 (BVDV): > 100 µM
EC50 (Reo-1): > 100 µM
CC50 (in vitro): > 100 µM
EC50 (RSV): 11 µM
CC50 [3]: > 100 µM
EC50 (CV-B5): > 100 µM

COc1ccc(NC(=O)Nc2ccc(-n3nc4cc(Cl)c(Cl)cc4n3)cc2)cc1 [10g, 1-[4-(5,6-dichloro-2H-benzo[d][1,2,3]triazol-2-yl)phenyl]-3-(4-methoxyphenyl)urea]
EC50 (HIV-1IIIB): > 100 µM
CC50 [1]: > 100 µM
CC50 at 5 days [2]: > 100 µM
EC50 (Sb-1, VSV, VV, HSV-1): > 100 µM
melting point: > 290 °C
EC50 (YFV): > 100 µM
EC50 (BVDV): > 100 µM
EC50 (Reo-1): > 100 µM
CC50 (in vitro): > 100 µM
EC50 (RSV): > 100 µM
CC50 [3]: > 100 µM
EC50 (CV-B5): > 100 µM

N#Cc1ccc(C(=O)Nc2ccc(-n3nc4cc(Cl)c(Cl)cc4n3)cc2)cc1 [8h, N-[4-(5,6-dichloro-2H-benzo[d][1,2,3]triazol-2-yl)phenyl] 4-cyanobenzamide]
EC50 (HIV-1IIIB): > 100 µM
CC50 [1]: > 100 µM
CC50 at 5 days [2]: > 100 µM
EC50 (Sb-1, VSV, VV, HSV-1): > 100 µM
melting point: 263 to 265 °C
EC50 (YFV): > 100 µM
EC50 (BVDV): 11 µM
EC50 (Reo-1): > 100 µM
CC50 (in vitro): > 100 µM
EC50 (RSV): 60 µM
CC50 [3]: > 100 µM
EC50 (CV-B5): > 100 µM

CCCC(=O)N(C(=O)CCC)c1ccc(-n2nc3cc(Cl)c(Cl)cc3n2)cc1 [6f, N-butyryl-N-[4-(5,6-dichloro-2H-benzo[d][1,2,3]triazol-2-yl)phenyl] butyramide]
EC50 (HIV-1IIIB): > 24 µM
CC50 [1]: 24 µM
CC50 at 5 days [2]: > 100 µM
EC50 (Sb-1, VSV, VV, HSV-1): > 100 µM
melting point: 130 to 133 °C
EC50 (YFV): > 62 µM
EC50 (BVDV): > 84 µM
EC50 (Reo-1): > 26 µM
CC50 (in vitro): 84 µM
EC50 (RSV): 6 µM
CC50 [3]: 62 µM
EC50 (CV-B5): 33 µM

Cc1cc(CCCOc2c(C)cc(-c3noc(C(F)(F)F)n3)cc2C)on1 [PCL, Pleconaril, reference compound]
CC50 ([2]; Vero-76 cells (mock-infected)): > 100 µM
EC50 (CV-B5): 0.005 ± 0.001 µM

O=C1Nc2ccc(Cl)cc2[C@@](C#CC2CC2)(C(F)(F)F)O1 [EFV, Efavirenz, reference compound]
EC50 (HIV-1IIIB): 0.002 ± 0.0002 µM
CC50 ([1]; MT-4 cells (mock-infected)): 40 µM

O=C(Nc1ccc(-n2nc3cc(Cl)c(Cl)cc3n2)cc1)c1ccc(Cl)cc1 [8f, N-[4-(5,6-dichloro-2H-benzo[d][1,2,3]triazol-2-yl)PHENYL] 4-chlorobenzamide]
EC50 (HIV-1IIIB): > 100 µM
CC50 [1]: > 100 µM
CC50 at 5 days [2]: 80 µM
EC50 (Sb-1, VSV, VV, HSV-1): > 100 µM
melting point: 268 to 270 °C
EC50 (YFV): > 100 µM
EC50 (BVDV): 60 µM
EC50 (Reo-1): > 100 µM
CC50 (in vitro): > 100 µM
EC50 (RSV): 20 µM
CC50 [3]: > 100 µM
EC50 (CV-B5): > 100 µM

Cc1ccc(C(=O)Nc2ccc(-n3nnc4cc(Cl)c(Cl)cc43)cc2)cc1 [7b, N-[4-(5,6-dichloro-1H-benzo[d][1,2,3]triazol-1-yl)phenyl]-4-methylbenzamide]
EC50 (HIV-1IIIB): > 100 µM
CC50 [1]: > 100 µM
CC50 at 5 days [2]: > 100 µM
EC50 (Sb-1, VSV, VV, HSV-1): > 100 µM
melting point: 226 to 228 °C
EC50 (YFV): > 100 µM
EC50 (BVDV): > 100 µM
EC50 (Reo-1): > 100 µM
CC50 (in vitro): > 100 µM
EC50 (RSV): > 100 µM
CC50 [3]: > 100 µM
EC50 (CV-B5): > 100 µM

COc1ccc(C(=O)Nc2ccc(-n3nnc4cc(Cl)c(Cl)cc43)cc2)cc1 [7c, N-[4-(5,6-dichloro-1H-benzo[d][1,2,3]triazol-1-yl)phenyl]-4-methoxybenzamide]
EC50 (HIV-1IIIB): > 33 µM
CC50 [1]: 33 µM
CC50 at 5 days [2]: > 100 µM
EC50 (Sb-1, VSV, VV, HSV-1): > 100 µM
melting point: 193 to 195 °C
EC50 (YFV): > 100 µM
EC50 (BVDV): > 100 µM
EC50 (Reo-1): > 100 µM
CC50 (in vitro): > 100 µM
EC50 (RSV): 35 µM
CC50 [3]: > 100 µM
EC50 (CV-B5): > 100 µM

CCCC(=O)N(C(=O)CCC)c1ccc(-n2nnc3cc(Cl)c(Cl)cc32)cc1 [5d, N-butyryl-N-[4-(5,6-dichloro-1H-benzo[d][1,2,3]triazol-1-yl)phenyl] butyramide]
EC50 (HIV-1IIIB): > 35 µM
CC50 [1]: 35 µM
CC50 at 5 days [2]: 20 µM
EC50 (Sb-1, VSV, VV, HSV-1): > 20 µM
melting point: 202 to 204 °C
EC50 (YFV): > 16 µM
EC50 (BVDV): > 14 µM
EC50 (Reo-1): > 16 µM
CC50 (in vitro): 14 µM
EC50 (RSV): > 30 µM
CC50 [3]: 16 µM
EC50 (CV-B5): > 20 µM

Nc1ccc(-n2nc3cc(Cl)c(Cl)cc3n2)cc1 [1b, 2-(4-aminophenyl)-5,6-dichlorobenzotriazole]
EC50 (HIV-1IIIB): > 52 µM
CC50 [1]: 52 µM
CC50 at 5 days [2]: > 100 µM
EC50 (Sb-1, VSV, VV, HSV-1): > 100 µM
EC50 (YFV): > 100 µM
EC50 (BVDV): 20 µM
EC50 (Reo-1): > 100 µM
CC50 (in vitro): ≥ 100 µM
EC50 (RSV): 6 µM
CC50 [3]: > 100 µM
EC50 (CV-B5): > 100 µM

C[C@@]1(O)[C@H](O)[C@@H](CO)O[C@H]1n1cnc2c(=O)[nH]c(N)nc21 [2MG, 2’-C-methyl-guanosine, reference compound]
EC50 (YFV): 1.9 ± 0.1 µM
EC50 (BVDV): 1.1 ± 0.1 µM
EC50 (Reo-1): 0.7 ± 0.2 µM
CC50 (in vitro): > 100 µM
CC50 [3]: > 100 µM

Nc1ccc(-n2nnc3cc(Cl)c(Cl)cc32)cc1 [1a, 1-(4-aminophenyl)-5,6-dichlorobenzotriazole]
EC50 (HIV-1IIIB): > 100 µM
CC50 [1]: > 100 µM
CC50 at 5 days [2]: > 100 µM
EC50 (Sb-1, VSV, VV, HSV-1): > 100 µM
EC50 (YFV): > 100 µM
EC50 (BVDV): 75 µM
EC50 (Reo-1): > 100 µM
CC50 (in vitro): > 100 µM
EC50 (RSV): 20 µM
CC50 [3]: > 100 µM
EC50 (CV-B5): 85 µM

Cc1ccc(NC(=O)Nc2ccc(-n3nc4cc(Cl)c(Cl)cc4n3)cc2)cc1 [10f, 1-[4-(5,6-dichloro-2H-benzo[d][1,2,3]triazol-2-yl)phenyl]-3-(4-methylphenyl)urea]
EC50 (HIV-1IIIB): > 100 µM
CC50 [1]: > 100 µM
CC50 at 5 days [2]: > 100 µM
EC50 (Sb-1, VSV, VV, HSV-1): > 100 µM
EC50 (YFV): > 100 µM
EC50 (BVDV): > 100 µM
EC50 (Reo-1): > 100 µM
CC50 (in vitro): > 100 µM
EC50 (RSV): > 100 µM
CC50 [3]: > 100 µM
EC50 (CV-B5): > 100 µM
